Experimental data as given in ChEMBL document CHEMBL1201862, “PubChem BioAssay data set” (2004).
The source made the active and inactive calls.

Tests used:
[1] = cells; format: functional, cell-based
[2] = cells; format: functional, cell-based; remark: listed apart in the source
[3] = target: T1, Long-chain-fatty-acid--AMP ligase FadD28 (Mycobacterium tuberculosis, UniProt P9WQ59); experiment: Fluorescence polarization aasay to screen for inhibitors that compete for the binding of FadD28 to a bisubstrate Measured in Biochemical System Using Plate Reader - 2147-01_Inhibitor_Dose_CherryPick_Activity.; format: functional, Mycobacterium tuberculosis H37Rv
T1 sequence (P9WQ59 whole entry): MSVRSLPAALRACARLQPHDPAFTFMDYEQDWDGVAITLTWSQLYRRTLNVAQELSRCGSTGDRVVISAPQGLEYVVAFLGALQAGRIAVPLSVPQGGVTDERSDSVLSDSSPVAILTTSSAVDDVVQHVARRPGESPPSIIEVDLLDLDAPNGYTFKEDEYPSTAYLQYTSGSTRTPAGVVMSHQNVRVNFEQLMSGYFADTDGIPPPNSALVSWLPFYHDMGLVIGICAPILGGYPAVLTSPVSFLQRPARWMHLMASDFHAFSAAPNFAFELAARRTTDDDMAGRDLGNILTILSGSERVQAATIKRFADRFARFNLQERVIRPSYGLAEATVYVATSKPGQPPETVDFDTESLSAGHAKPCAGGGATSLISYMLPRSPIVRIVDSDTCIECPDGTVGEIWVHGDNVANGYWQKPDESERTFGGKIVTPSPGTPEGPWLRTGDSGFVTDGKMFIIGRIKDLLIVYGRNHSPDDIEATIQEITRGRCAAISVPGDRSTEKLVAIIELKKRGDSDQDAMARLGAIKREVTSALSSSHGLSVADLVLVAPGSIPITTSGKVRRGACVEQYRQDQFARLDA

[4] = target: T2, Carboxy-terminal domain RNA polymerase II polypeptide A small phosphatase 1 (Homo sapiens, UniProt Q9GZU7); experiment: CTDSP1 inhibitors, concentration-response, biochemical, absorbance readout, ultra-high-throughput screen actives (AID 540297); format: functional
T2 sequence (Q9GZU7 whole entry): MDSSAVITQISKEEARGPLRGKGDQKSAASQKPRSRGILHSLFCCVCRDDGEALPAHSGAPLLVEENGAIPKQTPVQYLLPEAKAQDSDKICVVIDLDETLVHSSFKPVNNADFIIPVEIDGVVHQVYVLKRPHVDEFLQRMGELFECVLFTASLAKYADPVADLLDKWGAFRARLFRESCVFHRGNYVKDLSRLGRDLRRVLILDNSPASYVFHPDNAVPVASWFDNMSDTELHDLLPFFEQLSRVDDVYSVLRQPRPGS

[5] = target: T3, Leucine aminopeptidase (Plasmodium falciparum 3D7, UniProt Q8IL11); experiment: P. falciparum M17LAP inhibitors, primary screen, biochemical, fluorogenic H-Leu-NHMec substrate, 1536-well (AID 1619); format: functional
T3 sequence (Q8IL11 whole entry): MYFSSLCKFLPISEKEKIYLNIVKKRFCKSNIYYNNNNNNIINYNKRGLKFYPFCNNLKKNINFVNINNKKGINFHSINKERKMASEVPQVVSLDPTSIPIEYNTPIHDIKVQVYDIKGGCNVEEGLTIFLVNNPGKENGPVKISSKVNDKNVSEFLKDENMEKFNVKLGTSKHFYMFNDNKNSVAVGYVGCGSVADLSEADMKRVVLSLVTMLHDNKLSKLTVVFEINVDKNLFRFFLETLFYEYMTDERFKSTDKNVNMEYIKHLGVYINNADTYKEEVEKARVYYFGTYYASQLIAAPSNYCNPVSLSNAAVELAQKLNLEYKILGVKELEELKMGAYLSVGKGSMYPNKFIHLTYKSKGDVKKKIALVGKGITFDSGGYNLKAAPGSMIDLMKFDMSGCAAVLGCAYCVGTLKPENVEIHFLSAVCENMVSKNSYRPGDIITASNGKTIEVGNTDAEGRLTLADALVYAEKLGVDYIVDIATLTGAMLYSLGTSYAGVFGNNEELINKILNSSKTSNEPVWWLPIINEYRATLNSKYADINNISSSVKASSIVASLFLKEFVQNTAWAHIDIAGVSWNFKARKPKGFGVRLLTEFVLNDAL

[6] = off-target signal loss in HeLa-CEM21 co-culture – HeLa F-luc CTL cells, cherry-picked, counter-screen for HIV-1 Env fusion inhibitor project, dose response (AID 652040); format: functional, cell-based;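 also: potency for signal decrease marking cytotoxic or nonspecific inhibition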
[7] = blockers of HIV-1 ZM109 envelope-driven cell-cell fusion – HeLa effector, CEM target cells, luciferase, cherry-pick, dose response (AID 652058); format: functional, cell-based;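 also: luciferase signal from HIV-1 Env mediated cell-cell fusion of effector and target cells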
[8] = blockers of HIV-1 envelope-mediated cell-cell fusion – cherry-pick, dose response (AID 652057); format: functional, cell-based
[9] = OVCAR8 cell viability loss – plate reader, dry powder samples, PAX8 project, dose response (AID 743197); format: functional, cell-based; conditions: OVCAR-8
[10] = target: Paired box protein Pax-8 (Homo sapiens, UniProt Q06710); experiment: PAX8 transcriptional activity inhibition in RMG-I – RMG-I cells, luciferase, cherry-pick, dose response (AID 687027); format: functional, cell-based;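 also: luciferase reporter driven by Pax8 target thyroperoxidase promoter measured by SteadyGlo luminescence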
Chain of Paired box protein Pax-8 (Q06710 whole entry): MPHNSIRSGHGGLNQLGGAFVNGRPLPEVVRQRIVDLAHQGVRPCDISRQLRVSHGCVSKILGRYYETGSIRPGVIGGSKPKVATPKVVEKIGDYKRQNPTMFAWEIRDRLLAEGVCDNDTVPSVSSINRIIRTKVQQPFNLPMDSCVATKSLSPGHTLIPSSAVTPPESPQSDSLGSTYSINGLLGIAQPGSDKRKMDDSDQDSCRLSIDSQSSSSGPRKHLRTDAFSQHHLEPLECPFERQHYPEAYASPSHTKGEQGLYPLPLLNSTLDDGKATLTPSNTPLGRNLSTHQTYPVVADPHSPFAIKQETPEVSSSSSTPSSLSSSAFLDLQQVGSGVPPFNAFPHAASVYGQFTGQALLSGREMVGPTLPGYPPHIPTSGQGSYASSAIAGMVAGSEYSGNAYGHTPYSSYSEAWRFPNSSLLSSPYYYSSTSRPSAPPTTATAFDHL

[11] = OVCAR-3 cell viability loss – plate reader, dry powder samples, PAX8 inhibitor project, dose response (AID 743044); format: functional, cell-based
[12] = target: Dual specificity tyrosine-phosphorylation-regulated kinase 1A (Rattus norvegicus, UniProt Q63470); format: biochemical, Homo sapiens
[13] = target: T4, Corticotropin-releasing factor receptor 2/Corticotropin-releasing factor-binding protein (Homo sapiens, UniProt P24387+Q13324); experiment: activators of CRF receptor 2 with binding protein – uHTS hits, confirmation (AID 602473); format: functional; conditions: read-out: EC50_Mean
T4 sequence (Q13324 whole entry): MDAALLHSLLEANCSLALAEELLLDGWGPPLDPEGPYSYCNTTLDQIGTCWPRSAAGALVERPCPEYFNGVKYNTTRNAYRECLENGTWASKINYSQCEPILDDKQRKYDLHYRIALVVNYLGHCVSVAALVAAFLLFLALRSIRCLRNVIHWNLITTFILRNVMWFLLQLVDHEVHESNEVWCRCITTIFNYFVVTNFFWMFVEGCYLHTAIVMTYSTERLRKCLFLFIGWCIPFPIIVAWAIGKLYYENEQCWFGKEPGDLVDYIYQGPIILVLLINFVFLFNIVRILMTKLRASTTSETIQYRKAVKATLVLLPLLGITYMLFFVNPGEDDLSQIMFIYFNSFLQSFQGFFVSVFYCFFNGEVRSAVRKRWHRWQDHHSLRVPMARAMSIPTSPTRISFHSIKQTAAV
T4 sequence (P24387 whole entry): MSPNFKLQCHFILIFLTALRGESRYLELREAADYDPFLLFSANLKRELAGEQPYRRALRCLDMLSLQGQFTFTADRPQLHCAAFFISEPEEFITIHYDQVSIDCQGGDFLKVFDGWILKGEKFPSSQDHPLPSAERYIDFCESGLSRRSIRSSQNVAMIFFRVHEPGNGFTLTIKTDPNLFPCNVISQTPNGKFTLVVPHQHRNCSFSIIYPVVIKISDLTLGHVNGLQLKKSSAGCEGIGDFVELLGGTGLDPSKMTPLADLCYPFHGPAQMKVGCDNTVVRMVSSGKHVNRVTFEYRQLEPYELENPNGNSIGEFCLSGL

[14] = target: T4, Corticotropin-releasing factor receptor 2/Corticotropin-releasing factor-binding protein; experiment: Dose Response confirmation of uHTS hits for small molecule antagonists of the CRF-binding protein and CRF-R2 receptor complex.; format: functional; conditions: read-out: IC50_Mean
[15] = A549 cell cytotoxicity, dose response, cytotoxicity control, plate reader, cherry-pick, antagonist series (AID 743412); format: functional, cell-based
[16] = target: Cytochrome P450 2C19 (Homo sapiens, UniProt P33261); experiment: Cytochrome panel assay with activity outcomes. Panel member name: p450-cyp2c19 Compounds with AC50 equal or less than 10 uM are considered active; format: functional; conditions: read-out: AC50
Chain of Cytochrome P450 2C19 (P33261 whole entry): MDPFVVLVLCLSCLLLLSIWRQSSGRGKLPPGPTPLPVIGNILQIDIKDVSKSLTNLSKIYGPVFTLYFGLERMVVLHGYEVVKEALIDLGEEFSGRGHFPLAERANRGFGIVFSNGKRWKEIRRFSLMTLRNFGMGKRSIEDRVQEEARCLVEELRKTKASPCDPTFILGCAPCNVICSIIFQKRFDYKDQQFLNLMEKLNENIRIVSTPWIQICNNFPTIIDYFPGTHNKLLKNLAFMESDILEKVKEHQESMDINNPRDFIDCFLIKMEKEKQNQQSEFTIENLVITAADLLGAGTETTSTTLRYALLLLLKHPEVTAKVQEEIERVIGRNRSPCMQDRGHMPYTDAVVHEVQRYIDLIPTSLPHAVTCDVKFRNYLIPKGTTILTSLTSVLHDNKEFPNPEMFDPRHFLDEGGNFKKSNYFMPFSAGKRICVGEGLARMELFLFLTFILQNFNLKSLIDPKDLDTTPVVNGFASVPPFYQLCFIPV

[17] = Luminescence Cell-Based Dose Confirmation HTS to Identify Activators of 5'UTR Stem-Loop Driven Alpha-Synuclein mRNA Translation in H4 Neuroglioblastoma Cells. [Related pubchem assays: 1829 (Project Summary), 1814 (Primary HTS)]; format: functional
[18] = Luminescence Cell-Based Dose Response HTS to Identify Activators of Luciferase Translation or Activity in H4 […] Cells. [Related pubchem assays: 1829 (Project Summary), 1814 (Primary HTS)]; format: functional
[19] = test system: H4; experiment: Luminescence Cell-Based Dose Response HTS to Identify Activators of 5'UTR Stem-Loop Driven Prion Protein mRNA Translation in H4 Neuroglioblastoma Cells. [Related pubchem assays: 1829 (Project Summary), 1814 (Primary HTS)]; format: functional; conditions: Homo sapiens
[20] = reduced cellular PGC1a acetyl-lysine signal – cell-based, cherry-picked samples, dose response (AID 720514); format: functional;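 also: potency may reflect raised or lowered acetylation signal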
[21] = Trypanosoma cruzi growth suppression in host cells – NIH3T3 host cells, beta-gal luminescence, confirmation (AID 2044); format: functional, cell-based;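 also: intracellular parasites grown in NIH/3T3 mouse fibroblasts as host cells; luminescent beta-galactosidase reporter signal from transgenic T. cruzi replicating inside host cells; inhibitors lower the luminescence signal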
[22] = NIH3T3 cell viability loss – ATP luminescence, mouse fibroblasts, counter-screen, dose response (AID 2010); format: functional, cell-based;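 also: cells exposed to compound for about 90 hours before reading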
[23] = target: T5, Calpain-2 catalytic subunit (Sus scrofa, UniProt P43367); experiment: m-calpain protease blockers, concentration series – biochemical, fluorogenic peptide substrate, dose response (AID 1420); format: functional
T5 sequence (P43367 whole entry): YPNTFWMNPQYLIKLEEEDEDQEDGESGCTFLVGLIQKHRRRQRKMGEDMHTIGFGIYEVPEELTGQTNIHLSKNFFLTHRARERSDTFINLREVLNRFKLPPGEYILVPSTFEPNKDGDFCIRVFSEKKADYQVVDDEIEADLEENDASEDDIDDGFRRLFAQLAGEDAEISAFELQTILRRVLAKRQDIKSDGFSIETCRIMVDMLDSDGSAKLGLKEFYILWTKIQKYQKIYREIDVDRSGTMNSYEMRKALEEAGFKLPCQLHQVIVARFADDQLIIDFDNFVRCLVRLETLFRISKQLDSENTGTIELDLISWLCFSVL

In the case of `COc1ccccc1OCC(=O)N/N=C/c1c(O)ccc2ccccc12`, the EC50 [1] is reported as > 350 µM (not active) and the EC50 [2] is reported as 10.8 µM (active).
For `FC(F)Oc1ccc(NC(S)=Nc2ccc3c[nH]nc3c2)cc1`, the EC50 [1] was > 350 µM (not active) and the EC50 [2] was > 350 µM (not active).
In the case of `Nc1nc(-c2cccs2)c(-c2cccs2)s1`, the AC50 [3] is reported as > 100 µM (inactive).
With `O=C(O)c1ccc(CSc2nc3ccc(NC(=O)c4ccccc4C(=O)O)cc3s2)cc1` the IC50 [4] was 6.66 µM (active).
With `Cc1cc(C(=O)O)ccc1-c1ccc(/C=C2\NC(=O)N(Cc3ccccc3Cl)C2=O)o1` the IC50 [4] was 7.71 µM (active) and the IC50 [5] was 13.6 µM (active).
With `Cc1ccc(-c2cc(C(=O)N3CCCCCC3)no2)cc1` the EC50 [1] was 10.2 µM (active) and the EC50 [2] was > 350 µM (not active).
For `CCOC(=O)c1ccc(NC2c3ncccc3C(=O)N2Cc2ccc(F)cc2)cc1` (centres undefined), the AC50 [6] was 2.84 µM (active), the AC50 [7] was 0.521 µM (active) and the AC50 [8] was 3.06 µM (active).
For `C[C@H]1CCCCO[C@@H](CN(C)Cc2ccc(C(F)(F)F)cc2)[C@@H](C)CN([C@@H](C)CO)C(=O)c2cc(NC(=O)Nc3ccc(F)cc3)ccc2O1`, the AC50 [9] was 56 µM (active), the AC50 [10] was 5.26 µM (active) and the AC50 [11] was 66.3 µM (active).
With `C=CCOc1ccc(/C=C2\SC(Nc3cccnc3)=NC2=O)cc1` the EC50 [1] was > 350 µM (not active), the EC50 [2] was > 350 µM (not active) and the AC50 [12] was 2.93 µM (active).
For `COc1ccc(/C=C/C(=O)NCCSCc2ccco2)cc1OC`, the EC50 [1] was > 350 µM (not active), the EC50 [13] was > 53 µM (inactive) and the EC50 [2] was > 350 µM (not active). For the same compound, the IC50 [14] was > 47.1 µM (inactive).
With `NC(=O)COc1ccc(/C=N\NC(=O)c2ccc(-c3ccccc3)cc2)cc1` the IC50 [4] was 6.66 µM (active).
For `C[C@@H]1CN([C@@H](C)CO)C(=O)Cc2cc(NC(=O)Nc3ccc(C(F)(F)F)cc3)ccc2O[C@H]1CN(C)C(=O)NC1CCCCC1`, the AC50 [10] was 8.4 µM (active) and the AC50 [11] was 54 µM (active).
For `CCCC[n+]1ccc(-c2nc3cc([N+](=O)[O-])ccc3[nH]2)cc1`, the AC50 [12] was 2.24 µM (active).
For `O=C(Nc1cccc(-c2nc3cccnc3s2)c1)c1cccnc1Cl`, the AC50 [12] was 0.651 µM (active).
With `Clc1ccc2[nH]c(COc3ccccc3)nc2c1` the AC50 [12] was 6.23 µM (active).
For `CCCC1CCC(=C(C#N)C(N)=O)CC1` (centres undefined), the EC50 [1] was 41.6 µM (active) and the EC50 [2] was > 350 µM (not active).
In the case of `CCC(=O)N(C)C[C@H]1Oc2cc(C#CCC(C)C)ccc2S(=O)(=O)N([C@H](C)CO)C[C@@H]1C`, the AC50 [15] is reported as 32.1 µM (active).
In the case of `Cc1ccc(-c2cc(C(=O)Nc3cccnc3)c3ccccc3n2)o1`, the IC50 [4] is reported as 9.9 µM (active).
In the case of `Cc1cccc(NC(=O)Cn2c(=O)n3nc(CCn4nc(C)cc4C)nc3c3ccccc32)c1`, the AC50 [3] is reported as 44.4 µM (active) and the AC50 [16] is reported as 0.0355 µM (inconclusive).
With `N#CC1(NC(=O)Cn2ncc(Cl)c(Cl)c2=O)CCCCC1` the EC50 [17] was > 120 µM (not active), the EC50 [18] was > 60 µM (not active) and the EC50 [19] was > 120 µM (not active). For the same compound, the AC50 [10] was 3.01 µM (active), the AC50 [20] was 10.8 µM (active) and the EC50 [21] was 2.22 µM (active). For the same compound, the EC50 [22] was 3.27 µM (active).
With `O=C(COn1nnc2ccc(Cl)cc21)NC12CC3CC(CC(C3)C1)C2` the IC50 [23] was > 50 µM (not active) and the AC50 [20] was 31.5 µM (active).
